In publication PMC10094617, “Iron(III) Complexes with Non-Steroidal Anti-Inflammatory Drugs: Structure, Antioxidant and Anticholinergic Activity, and Interaction with Biomolecules” (International Journal of Molecular Sciences, 2023):

Legend:
[1] = target: T1, electric eel acetylcholinesterase (eeAChE) (Electrophorus electricus, UniProt O42275); test: Inhibition of acetylcholinesterase (modified Ellman's method); type: biochemical; conditions: 10^−3 M of the compound; pH 7.4, 37 °C
T1 construct: purchased J&K Scientific Co. (Beijing, China)
T1 sequence (O42275 24-633): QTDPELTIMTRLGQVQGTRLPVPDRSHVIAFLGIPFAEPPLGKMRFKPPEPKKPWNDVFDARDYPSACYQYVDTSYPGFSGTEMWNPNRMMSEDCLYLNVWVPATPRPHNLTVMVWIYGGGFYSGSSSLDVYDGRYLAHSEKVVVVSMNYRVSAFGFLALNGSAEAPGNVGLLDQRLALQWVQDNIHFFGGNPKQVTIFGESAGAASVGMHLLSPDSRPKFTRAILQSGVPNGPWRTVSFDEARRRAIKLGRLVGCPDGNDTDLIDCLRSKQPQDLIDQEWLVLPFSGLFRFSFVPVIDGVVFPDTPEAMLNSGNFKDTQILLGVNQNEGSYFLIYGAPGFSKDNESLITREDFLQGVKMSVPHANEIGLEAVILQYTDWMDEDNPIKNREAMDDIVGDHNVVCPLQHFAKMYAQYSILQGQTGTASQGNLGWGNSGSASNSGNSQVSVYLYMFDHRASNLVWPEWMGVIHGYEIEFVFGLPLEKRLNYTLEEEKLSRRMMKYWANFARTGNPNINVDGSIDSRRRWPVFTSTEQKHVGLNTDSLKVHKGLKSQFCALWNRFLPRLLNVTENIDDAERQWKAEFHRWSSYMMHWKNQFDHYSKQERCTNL
Experimental: (§1) In the study of cholinesterase inhibitors, the inhibitory effect of the compounds (the NSAIDs and their complexes 1–3) against AChE and BuChE was examined using a modified methodology based on Ellman’s method.
(§2) The ability of the compounds to inhibit AChE and BuChE was evaluated using UV-vis spectroscopy. All the assays were carried out in a 0.1M NaH2PO4/Na2HPO4 buffer at a pH = 7.4. Enzyme solutions were prepared with 2.0 U/mL for AChE and 3.0 U/mL for BuChE. A reaction mixture containing 20 μL of phosphate buffer, 100 μL of DTNB (1-mM), and 40 μL of the enzyme (AChE and BuChE) was incubated with 20 μL of the compounds at various concentrations at 37 °C for 15 min. The reaction was started by the addition of the substrate (20-μL) of ATCI or BTCI solution (1-mM), respectively, and incubation for additional 3 min.
(§3) The enzyme activity was determined by measuring the increase in absorbance at 2-min intervals at 412 nm at 37 °C (ε = 14,150 M^−1cm^−1).
The rate of inhibition of each enzyme by the compounds was calculated according to the following expression:(1) I%=(1−VB/VA)×100 where VB and VA indicate the absorbance measured for ChEs in the presence and absence of inhibitors, respectively. The results are expressed as the average of three repetitions of the tests performed and the standard deviation was less than 3% of the mean. The selectivity index (SI), defined as IC50 BuChE/IC50 AChE, was also calculated. Neostigmine methyl sulfate was used as the appropriate standard.

[2] = target: T2, equine serum butyrylcholinesterase (eqBuChE) (Equus caballus, UniProt P81908); test: Inhibition of butyrylcholinesterase (modified Ellman's method); type: biochemical; conditions: for BuChE (I%) inhibition rate: 10^−3 M of the compound, pH 7.4, 37 °C; for SI (selectivity index = IBuChE/IAChE): ratio of inhibition rates at 10^−3 M
T2 construct: purchased J&K Scientific Co. (Beijing, China); host or cells: equine serum (by the product's name)
T2 sequence (P81908 whole entry): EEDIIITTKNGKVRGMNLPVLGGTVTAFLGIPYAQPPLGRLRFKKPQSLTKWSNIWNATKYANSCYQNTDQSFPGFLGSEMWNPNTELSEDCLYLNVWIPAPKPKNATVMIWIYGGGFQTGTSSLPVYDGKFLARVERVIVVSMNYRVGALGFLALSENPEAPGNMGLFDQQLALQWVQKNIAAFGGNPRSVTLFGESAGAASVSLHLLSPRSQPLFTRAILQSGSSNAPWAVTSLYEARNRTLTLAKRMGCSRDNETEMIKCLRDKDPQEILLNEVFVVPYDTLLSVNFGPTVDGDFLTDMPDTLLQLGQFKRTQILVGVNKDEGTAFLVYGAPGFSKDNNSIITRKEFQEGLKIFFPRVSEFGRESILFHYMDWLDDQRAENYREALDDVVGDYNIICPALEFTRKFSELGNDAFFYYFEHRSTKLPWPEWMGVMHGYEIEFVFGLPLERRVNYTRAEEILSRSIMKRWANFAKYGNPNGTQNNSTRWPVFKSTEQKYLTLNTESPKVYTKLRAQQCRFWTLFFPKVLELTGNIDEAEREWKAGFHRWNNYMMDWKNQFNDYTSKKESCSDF
Experimental: as §1, §2, §3
The rate of inhibition of each enzyme by the compounds was calculated according to the following expression:(1) I%=(1−VB/VA)×100 where VB and VA indicate the absorbance measured for ChEs in the presence and absence of inhibitors, respectively. […] Neostigmine methyl sulfate was used as the appropriate standard.

[3] = Competition with DMSO for hydroxyl radicals; type: biochemical; conditions: compound 0.1 mM; 30 min, 37 °C, pH 7.4
Experimental: The antioxidant activity of complexes 1–3 was evaluated via their ability to scavenge the free radicals DPPH, hydroxyl, and ABTS. Each experiment was performed in triplicate and the standard deviation of absorbance was less than 10% of the mean.
Competition of the tested compounds with DMSO for hydroxyl radicals: The hydroxyl radicals generated by the Fe^3+/ascorbic acid system were detected according to Nash by the determination of formaldehyde produced from the oxidation of DMSO [155]. The reaction mixture contained EDTA (0.1 mM), Fe^3+ (167 μM), DMSO (33 mM) in phosphate buffer (50 mM, pH 7.4), complexes 1–3 (concentration 0.1 mM), and ascorbic acid (10 mM). After a 30-min incubation at 37 °C, the reaction was stopped with CCl3COOH (17% w/v) and the absorbance at λ = 412 nm was measured. Trolox was used as a reference compound. The competition of the compounds with DMSO for •OH, generated by the Fe^3+/ascorbic acid system, expressed as the percentage of inhibition of formaldehyde production, was used for the evaluation of their hydroxyl radical-scavenging activity (OH%).

[4] = target: T3, bovine serum albumin (BSA) (Bos taurus, UniProt P02769); test: BSA fluorescence emission quenching (albumin binding); conditions: for ΔI/Io (%) quenching of BSA fluorescence: BSA 3 μM, λex 295 nm, λem 343 nm; for K albumin-binding constant (BSA): Scatchard equation; for Kq albumin-quenching constant (BSA): Stern–Volmer, τo = 10^−8 s; for relative BSA fluorescence emission intensity (I/Io, %) remaining: λem,max = 343 nm, up to, % of the initial BSA fluorescence
T3 construct: purchased Sigma-Aldrich Co. (St. Louis, MO, USA)
T3 sequence (P02769 25-607): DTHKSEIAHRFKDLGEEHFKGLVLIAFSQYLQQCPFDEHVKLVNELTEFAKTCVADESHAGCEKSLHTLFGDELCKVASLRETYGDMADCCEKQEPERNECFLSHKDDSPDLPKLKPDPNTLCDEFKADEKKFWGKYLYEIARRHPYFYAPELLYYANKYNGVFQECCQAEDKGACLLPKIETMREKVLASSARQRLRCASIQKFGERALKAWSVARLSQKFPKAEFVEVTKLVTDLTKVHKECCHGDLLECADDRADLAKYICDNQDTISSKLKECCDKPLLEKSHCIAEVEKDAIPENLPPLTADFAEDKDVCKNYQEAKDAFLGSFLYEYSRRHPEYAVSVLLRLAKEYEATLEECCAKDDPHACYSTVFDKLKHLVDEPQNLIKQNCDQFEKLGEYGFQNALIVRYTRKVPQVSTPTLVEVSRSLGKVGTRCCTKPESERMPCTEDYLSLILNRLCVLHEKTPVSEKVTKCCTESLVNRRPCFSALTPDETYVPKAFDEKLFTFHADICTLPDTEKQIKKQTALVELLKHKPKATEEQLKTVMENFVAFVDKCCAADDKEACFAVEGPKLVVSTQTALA
Experimental: (§4) The albumin-binding study for complexes 1–3 was performed via fluorescence emission quenching experiments using BSA (3 μM) or HSA (3 μM), respectively, in a buffer solution (containing 15-mM trisodium citrate and […] at pH 7.0). The quenching of the emission intensity of tryptophan residues of BSA at 343 nm or HSA at 351 nm was monitored using complexes 1–3 as quenchers with increasing concentrations. The fluorescence emission spectra were recorded in the range of 300–500 nm, with an excitation wavelength of 295 nm. The quantitative studies of the serum albumin fluorescence spectra were performed after correction by subtracting the spectra of the compounds.
(§5) The extent of the inner-filter effect can be roughly estimated with the following formula:(2) Icorr=Imeas×10^ε(λexc)cd/2×10^ε(λem)cd/2 where Icorr = corrected intensity, Imeas = the measured intensity, c = the concentration of the quencher, d = the cuvette (1 cm), ε(λexc), and ε(λem) = the ε of the quencher at the excitation and the emission wavelength, respectively, as calculated from the UV-vis spectra of the complexes.
(§6) The Stern–Volmer and Scatchard graphs are used in order to study the interaction of a quencher with serum albumins. The Stern–Volmer quenching equation is used:(3) Io/I=1+Kq×τ0×[Q]=1+KSV×[Q] where Io = the initial tryptophan fluorescence intensity of SA, I = the tryptophan fluorescence intensity of SA after the addition of the quencher, Kq = the quenching constants of SA, KSV = the Stern–Volmer constant, τo = the average lifetime of SA without the quencher, and [Q] = the concentration of the quencher. The value of KSV (M^−1) can be obtained by the slope of the diagram Io/I versus [Q]. Taking τo = 10^−8 s as the fluorescence lifetime of tryptophan in SA, the value of Kq (M^−1s^−1) is calculated from the equation:(4) KSV=Kq×τo and from the Scatchard equation [130]:(5) ΔI/Io/[Q]=n×K−K×ΔI/Io where n is the number of binding sites per albumin and K is the SA-binding constant, K (in M^−1) is calculated from the slope in plots (ΔI/Io)/[Q] versus (ΔI/Io), and n is given by the ratio of y-intercept to the slope.

[5] = target: T4, human serum albumin (HSA) (Homo sapiens, UniProt P02768); test: HSA fluorescence emission quenching (albumin binding); conditions: for ΔI/Io (%) quenching of HSA fluorescence: HSA 3 μM, λex 295 nm, λem 351 nm; for K albumin-binding constant (HSA): Scatchard equation; for Kq albumin-quenching constant (HSA): Stern–Volmer, τo = 10^−8 s; for relative HSA fluorescence emission intensity (I/Io, %) remaining: λem,max = 351 nm, up to, % of the initial HSA fluorescence
T4 construct: purchased Sigma-Aldrich Co. (St. Louis, MO, USA)
T4 sequence (P02768 25-609): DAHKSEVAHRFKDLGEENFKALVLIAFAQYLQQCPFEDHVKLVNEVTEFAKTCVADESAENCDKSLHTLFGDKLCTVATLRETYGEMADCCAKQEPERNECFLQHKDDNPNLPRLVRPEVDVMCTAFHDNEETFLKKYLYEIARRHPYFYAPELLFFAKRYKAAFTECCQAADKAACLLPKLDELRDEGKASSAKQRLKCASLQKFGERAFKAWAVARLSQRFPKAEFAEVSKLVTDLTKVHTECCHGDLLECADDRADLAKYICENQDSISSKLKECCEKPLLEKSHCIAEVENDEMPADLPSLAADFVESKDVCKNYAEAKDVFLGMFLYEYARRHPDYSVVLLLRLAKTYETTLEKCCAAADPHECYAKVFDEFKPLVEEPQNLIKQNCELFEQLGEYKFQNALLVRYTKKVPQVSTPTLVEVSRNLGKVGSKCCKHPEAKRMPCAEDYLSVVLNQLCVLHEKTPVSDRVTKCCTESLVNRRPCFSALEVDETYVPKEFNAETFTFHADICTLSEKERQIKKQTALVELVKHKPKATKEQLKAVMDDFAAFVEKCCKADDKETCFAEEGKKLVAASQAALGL
Experimental: as §4, §5, §6

| Substance | AChE (I%) inhibition rate [1] | BuChE (I%) inhibition rate [2] | SI (selectivity index = IBuChE/IAChE) [2] | OH% (competition % with DMSO for hydroxyl radical) [3] | ΔI/Io (%) quenching of BSA fluorescence [4] | K albumin-binding constant (BSA) [4] | Kq albumin-quenching constant (BSA) [4] | relative BSA fluorescence emission intensity (I/Io, %) remaining [4] | ΔI/Io (%) quenching of HSA fluorescence [5] | K albumin-binding constant (HSA) [5] | Kq albumin-quenching constant (HSA) [5] | relative HSA fluorescence emission intensity (I/Io, %) remaining [5] |
| --- | --- | --- | --- | --- | --- | --- | --- | --- | --- | --- | --- | --- |
| [Fe3O(dicl)6(py)3]Cl∙py [Complex 2] | 3.56 ± 0.11% | 74.36 ± 1.40% | 20.89 | 87.89 ± 0.84% | 92.5% | 6.09 (±0.31) × 10^5 M^−1 | 8.70 (±0.43) × 10^13 M^−1s^−1 | 7.5% | 99.4% | 3.87 (±0.42) × 10^5 M^−1 | 6.09 (±0.30) × 10^13 M^−1s^−1 | 0.6% |
| [Fe3O(dicl)6(MeOH)3][FeCl4]·Hdicl·1.5MeOH∙H2O [Complex 3] | 3.55 ± 1.26% | 76.65 ± 1.95% | 21.59 | 94.31 ± 0.78% | 97.6% | 5.44 (±0.05) × 10^5 M^−1 | 8.45 (±0.31) × 10^13 M^−1s^−1 | 2.4% | 96.5% | 2.42 (±0.17) × 10^5 M^−1 | 5.22 (±0.35) × 10^13 M^−1s^−1 | 3.5% |
